System: IL-17 production from human Th17 cells;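 also: purified human CD4+ T cells activated with anti-CD3 plus anti-CD28 and a Th17-inducing cytokine cocktail, with compound at serial concentrations versus no compound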
Assay: IL-17 production from human Th17 cells;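 also: purified human CD4+ T cells activated with anti-CD3 plus anti-CD28 and a Th17-inducing cytokine cocktail, with compound at serial concentrations versus no compound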
Format: cell-based
Conditions: IL-17A in supernatant by ELISA after 6 days, human CD4+ T cells under Th17 differentiation

| Compound | IC50 |
| --- | --- |
| Cn1cc(C2CCN(C(=O)C3CCCC3)CC2)c2c(C(F)(F)F)c(NC(=O)c3ccc(F)c(C#N)c3)cnc21 [Example 3, 3-cyano-N-(3-(1-(cyclopentanecarbonyl)piperidin-4-yl)-1-methyl-4-(trifluoromethyl)-1H-pyrrolo[2,3-b]pyridin-5-yl)-4-fluorobenzamide] | 39.2 nM |
| Cn1cc([C@@H]2CCN(C(=O)C3CCCC3)C(C)(C)C2)c2c(C(F)(F)F)c(NC(=O)c3cccc(C#N)c3)cnc21 [Example 65, (R)-3-cyano-N-(3-(1-(cyclopentanecarbonyl)-2,2-dimethylpiperidin-4-yl)-1-methyl-4-(trifluoromethyl)-1H-pyrrolo[2,3-b]pyridin-5-yl)benzamide] | 10.7 nM |
| Cn1cc(C2CCN(C(=O)CC3CCCCC3)CC2)c2c(C(F)(F)F)c(NC(=O)c3cccc(C#N)c3)cnc21 [Example 20, 3-cyano-N-(3-(1-(2-cyclohexylacetyl)piperidin-4-yl)-1-methyl-4-(trifluoromethyl)-1H-pyrrolo[2,3-b]pyridin-5-yl)benzamide] | 18.5 nM |
| Cn1cc(C2[C@@H]3CC[C@H]2CN(C(=O)C2CCCC2)C3)c2c(C(F)(F)F)c(NC(=O)c3cccc(C#N)c3)cnc21 (stereo partly drawn) [Example 79, 3-cyano-N-{3-((1R,5S,8r)-3-(cyclopentanecarbonyl)-3-azabicyclo[3.2.1]octan-8-yl]-1-methyl-4-(trifluoromethyl)-1H-pyrrolo[2,3-b]pyridin-5-yl}benzamide] | 4.1 nM |
| Cc1c(NC(=O)c2cccc(C#N)c2)cnc2c1c([C@@H]1CCN(C(=O)CC3CCCCC3)C(C)(C)C1)cn2C [Example 75, (R)-3-cyano-N-(3-(1-(2-cyclohexylacetyl)-2,2-dimethylpiperidin-4-yl)-1,4-dimethyl-1H-pyrrolo[2,3-b]pyridin-5-yl)benzamide] | 6.8 nM |
| Cc1c(NC(=O)c2cccc(C#N)c2)cnc2c1c([C@H]1C[C@H](C)N(C(=O)C3CCCC3)C[C@H]1C)cn2C (relative stereo) [Example 97, rel-3-cyano-N-(3-((2S,4S,5S)-1-(cyclopentanecarbonyl)-2,5-dimethylpiperidin-4-yl)-1,4-dimethyl-1H-pyrrolo[2,3-b]pyridin-5-yl)benzamide] | 124 nM |
| CC(C)C(=O)N1CCC(c2cn(C)c3ncc(NC(=O)c4cccc(C#N)c4)c(C(F)(F)F)c23)CC1 [Example 5, 3-cyano-N-(3-(1-isobutyrylpiperidin-4-yl)-1-methyl-4-(trifluoromethyl)-1H-pyrrolo[2,3-b]pyridin-5-yl)benzamide] | 9.5 nM |
| Cn1cc(C2CCN(C(=O)CC3CC3)CC2)c2c(C(F)(F)F)c(NC(=O)c3cccc(C#N)c3)cnc21 [Example 24, 3-cyano-N-(3-(1-(2-cyclopropylacetyl)piperidin-4-yl)-1-methyl-4-(trifluoromethyl)-1H-pyrrolo[2,3-b]pyridin-5-yl)benzamide] | 17.4 nM |
| Cc1c(NC(=O)c2cccc(C#N)c2)cnc2c1c(C1CCN(C(=O)[C@H]3CCC[C@@H]3C)CC1)cn2C (single isomer, unassigned) [Example 46] | 57.4 nM |
| Cc1c(NC(=O)c2cccc(C#N)c2)cnc2c1c(C1CCN(C(=O)[C@@H]3CCC[C@H]3C)CC1)cn2C (single isomer, unassigned) [Example 47] | 8.4 nM |
| COc1cc(Cl)cc(C(=O)Nc2cnc3c(c(C4CCN(C(=O)[C@H](C)C(C)(C)C)CC4)cn3C)c2C)c1 [Example 42, (R)-3-chloro-N-(1,4-dimethyl-3-(1-(2,3,3-trimethylbutanoyl)piperidin-4-yl)-1H-pyrrolo[2,3-b]pyridin-5-yl)-5-methoxybenzamide] | 31.3 nM |
| COc1ccc(C(=O)Nc2cnc3c(c(C4CCN(C(=O)C(C)C)CC4)cn3C)c2C)cc1C#N [Example 110, 3-cyano-N-(3-(1-isobutyrylpiperidin-4-yl)-1,4-dimethyl-1H-pyrrolo[2,3-b]pyridin-5-yl)-4-methoxybenzamide] | 24.7 nM |
| Cc1cccc(F)c1C(=O)N1CCC(c2cn(C)c3ncc(NC(=O)c4cccc(C#N)c4)c(C)c23)CC1 [Example 33, 3-cyano-N-(3-(1-(2-fluoro-6-methylbenzoyl)piperidin-4-yl)-1,4-dimethyl-1H-pyrrolo[2,3-b]pyridin-5-yl)benzamide] | 13.7 nM |
| COc1cc(Cl)cc(C(=O)Nc2cnc3c(c([C@@H]4CCN(C(=O)C(C)C)C(C)(C)C4)cn3C)c2C)c1 [Example 62, (R)-3-chloro-N-(3-(1-isobutyryl-2,2-dimethylpiperidin-4-yl)-1,4-dimethyl-1H-pyrrolo[2,3-b]pyridin-5-yl)-5-methoxybenzamide] | 15.8 nM |
| CC(C)C(=O)N1CC[C@@H](c2cn(C)c3ncc(NC(=O)c4cccc(C#N)c4F)c(C(F)(F)F)c23)[C@@H](C)C1 [Example 82, 3-cyano-2-fluoro-N-(3-((3R,4R)-1-isobutyryl-3-methylpiperidin-4-yl)-1-methyl-4-(trifluoromethyl)-1H-pyrrolo[2,3-b]pyridin-5-yl)benzamide] | 5.7 nM |
| Cn1cc(C2CCN(C(=O)C3CCCC3)CC2)c2c(C(F)(F)F)c(NC(=O)c3cc(O)cc(C#N)c3)cnc21 [Example 55, 3-cyano-N-(3-(1-(cyclopentanecarbonyl)piperidin-4-yl)-1-methyl-4-(trifluoromethyl)-1H-pyrrolo[2,3-b]pyridin-5-yl)-5-hydroxybenzamide] | 6 nM |
| Cn1cc(C2CCN(C(=O)[C@@H]3CCCS3)CC2)c2c(C(F)(F)F)c(NC(=O)c3cccc(C#N)c3)cnc21 (single isomer, unassigned) [Example 29] | 8.5 nM |
| C[C@@H](C(=O)N1CCC(c2cn(C)c3ncc(NC(=O)c4cc(O)cc(C#N)c4)c(C(F)(F)F)c23)CC1)C(C)(C)C [Example 54, (R)-3-cyano-5-hydroxy-N-(1-methyl-4-(trifluoromethyl)-3-(1-(2,3,3-trimethylbutanoyl)piperidin-4-yl)-1H-pyrrolo [2,3-b]pyridin-5-yl)benzamide] | 5 nM |

More lines, in order of falling IC50, values ahead:

| IC50 | Compound |
| --- | --- |
| 51.3 nM | COc1ccc(C(=O)Nc2cnc3c(c(C4CCN(C(=O)C(C)C)CC4)cn3C)c2C(F)(F)F)cc1Cl [Example 10, 3-chloro-N-(3-(1-isobutyrylpiperidin-4-yl)-1-methyl-4-(trifluoromethyl)-1H-pyrrolo[2,3-b]pyridin-5-yl)-4-methoxybenzamide] |
| 29.8 nM | Cc1c(NC(=O)c2cccc(C#N)c2)cnc2c1c([C@@H]1CCN(C(=O)C(C)C)[C@@H](C)C1)cn2C [Example 113, 3-cyano-N-(3-((2S,4R)-1-isobutyryl-2-methylpiperidin-4-yl)-1,4-dimethyl-1H-pyrrolo[2,3-b]pyridin-5-yl)benzamide] |
| 25.6 nM | Cc1c(NC(=O)c2ccc(F)c(C#N)c2)cnc2c1c([C@@H]1CCN(C(=O)C3CCCC3)C(C)(C)C1)cn2C [Example 61, (R)-3-cyano-N-(3-(1-(cyclopentanecarbonyl)-2,2-dimethylpiperidin-4-yl)-1,4-dimethyl-1H-pyrrolo[2,3-b]pyridin-5-yl)-4-fluorobenzamide] |
| 14.1 nM | CC(C(=O)N1CCC(c2cn(C)c3ncc(NC(=O)c4cccc(C#N)c4)c(C(F)(F)F)c23)CC1)C1CC1 (racemic) [Example 25, Rac-3-cyano-N-(3-(1-(2-cyclopropylpropanoyl)piperidin-4-yl)-1-methyl-4-(trifluoromethyl)-1H-pyrrolo[2,3-b]pyridin-5-yl)benzamide] |
| 13.4 nM | Cc1c(NC(=O)c2cccc(C#N)c2)cnc2c1c(C1CCN(C(=O)[C@@H]3CCC[C@@H]3C(C)C)CC1)cn2C (single isomer, unassigned) [Example 48] |
| 12.2 nM | COc1cc(C#N)cc(C(=O)Nc2cnc3c(c([C@@H]4CCN(C(=O)C5CCCC5)[C@@H](C)C4)cn3C)c2C)c1 [Example 90, 3-cyano-N-(3-((2S,4R)-1-(cyclopentanecarbonyl)-2-methylpiperidin-4-yl)-1,4-dimethyl-1H-pyrrolo[2,3-b]pyridin-5-yl)-5-methoxybenzamide] |
| 12 nM | COc1cc(Cl)cc(C(=O)Nc2cnc3c(c([C@@H]4CCN(C(=O)C5CCCC5)C(C)(C)C4)cn3C)c2C)c1 [Example 63, (R)-3-chloro-N-(3-(1-(cyclopentane-carbonyl)-2,2-dimethylpiperidin-4-yl)-1,4-dimethyl-1H-pyrrolo[2,3-b]pyridin-5-yl)-5-methoxybenzamide] |
| 10.2 nM | Cc1c(NC(=O)c2cc(O)cc(C#N)c2)cnc2c1c([C@@H]1CCN(C(=O)C3CCCC3)C(C)(C)C1)cn2C [Example 64, (R)-3-cyano-N-(3-(1-(cyclopentanecarbonyl)-2,2-dimethylpiperidin-4-yl)-1,4-dimethyl-1H-pyrrolo[2,3-b]pyridin-5-yl)-5-hydroxybenzamide] |
| 9.9 nM | Cc1ccc(C(=O)Nc2cnc3c(c([C@@H]4CCN(C(=O)C5CCCC5)C(C)(C)C4)cn3C)c2C)cc1C#N [Example 59, (R)-3-cyano-N-(3-(1-(cyclopentanecarbonyl)-2,2-dimethylpiperidin-4-yl)-1,4-dimethyl-1H-pyrrolo[2,3-b]pyridin-5-yl)-4-methylbenzamide] |
| 6.4 nM | Cc1c(NC(=O)c2cccc(C#N)c2)cnc2c1c(C1CCN(C(=O)[C@H](C)C3CCCC3)CC1)cn2C [Example 51, (R)-3-cyano-N-(3-(1-(2-cyclopentylpropanoyl)piperidin-4-yl)-1,4-dimethyl-1H-pyrrolo[2,3-b]pyridin-5-yl)benzamide] |
| 5 nM | Cc1c(NC(=O)c2cccc(C#N)c2)cnc2c1c([C@@H]1CCN(C(=O)CC3CCC3)C(C)(C)C1)cn2C [Example 76, (R)-3-cyano-N-(3-(1-(2-cyclobutylacetyl)-2,2-dimethylpiperidin-4-yl)-1,4-dimethyl-1H-pyrrolo[2,3-b]pyridin-5-yl)benzamide] |
| 3.6 nM | Cc1c(NC(=O)c2cccc(C#N)c2)cnc2c1c([C@@H]1CCN(C(=O)CC3CCCC3)C(C)(C)C1)cn2C [Example 74, (R)-3-cyano-N-(3-(1-(2-cyclopentylacetyl)-2,2-dimethylpiperidin-4-yl)-1,4-dimethyl-1H-pyrrolo[2,3-b]pyridin-5-yl)benzamide] |
| 3.4 nM | Cc1c(NC(=O)c2cccc(C#N)c2)cnc2c1c(C1CCN(C(=O)[C@H](C)C34CC(C3)C4)CC1)cn2C [Example 50, (R)—N-(3-(1-(2-(bicyclo[1.1.1]pentan-1-yl)propanoyl)piperidin-4-yl)-1,4-dimethyl-1H-pyrrolo[2,3-b]pyridin-5-yl)-3-cyanobenzamide] |
